Measurements as given in patent US20210238170A1, “5,5-Difluoro- and 5-Fluoro-5-Methyl-C-Glycoside Derivatives Useful As Dual SGLT1 / SGLT2 Modulators” (Janssen Pharmaceutica NV, priority 2018, published 2021).
pIC50: −log10 of the molar value. Read-outs that look alike come from different tables or passages of the source.

What was measured:
human SGLT2 = target: T1, human SGLT2 (Homo sapiens, UniProt P31639); assay: SGLT2 in vitro assay: Na-dependent 14C-AMG uptake in CHO-K1 cells stably expressing human SGLT2; type: cell-based; conditions: for inhibition at 0.3 µM: read-out: SGLT2 % Inh @ 0.3 μM
T1 construct: expressed in transfected cells
T1 sequence (P31639 1-672): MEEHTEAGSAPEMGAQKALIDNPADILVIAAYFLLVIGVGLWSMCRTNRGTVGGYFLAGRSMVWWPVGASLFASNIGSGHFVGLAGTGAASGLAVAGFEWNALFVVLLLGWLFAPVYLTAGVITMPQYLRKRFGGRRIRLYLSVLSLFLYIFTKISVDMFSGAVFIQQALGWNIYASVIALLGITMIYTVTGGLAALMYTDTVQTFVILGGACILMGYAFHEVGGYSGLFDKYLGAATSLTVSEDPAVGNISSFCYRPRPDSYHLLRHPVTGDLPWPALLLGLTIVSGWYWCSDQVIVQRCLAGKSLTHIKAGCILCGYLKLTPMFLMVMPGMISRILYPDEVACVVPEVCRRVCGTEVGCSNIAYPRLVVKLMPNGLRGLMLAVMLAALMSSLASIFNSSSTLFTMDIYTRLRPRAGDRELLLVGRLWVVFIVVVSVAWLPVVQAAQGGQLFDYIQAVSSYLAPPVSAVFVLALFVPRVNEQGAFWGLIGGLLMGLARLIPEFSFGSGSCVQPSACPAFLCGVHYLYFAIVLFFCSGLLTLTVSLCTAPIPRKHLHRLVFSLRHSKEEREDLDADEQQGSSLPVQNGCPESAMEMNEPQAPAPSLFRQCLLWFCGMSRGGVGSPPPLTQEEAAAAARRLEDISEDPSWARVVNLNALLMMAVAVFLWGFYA
Outline: (§1)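 CHO-K1 cells stably expressing human SGLT1 or SGLT2, induced with 10 mM Na-butyrate for 24 h. Compounds (0.001–10 μM) in Na+-containing HEPES/Tris buffer pH 7.4 were applied for 10 min, then 14C-AMG ([…]) for 2 h at 37°C; Na-dependent uptake read by scintillation; %-inhibition or IC50.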

human SGLT1 = target: T2, human SGLT1 (Homo sapiens, UniProt P13866); assay: SGLT1 in vitro assay: Na-dependent 14C-AMG uptake in CHO-K1 cells stably expressing human SGLT1; type: cell-based; conditions: for inhibition at 0.3 µM: read-out: SGLT1 % Inh @ 0.3 μM
T2 construct: expressed in transfected cells
T2 sequence (P13866 1-664): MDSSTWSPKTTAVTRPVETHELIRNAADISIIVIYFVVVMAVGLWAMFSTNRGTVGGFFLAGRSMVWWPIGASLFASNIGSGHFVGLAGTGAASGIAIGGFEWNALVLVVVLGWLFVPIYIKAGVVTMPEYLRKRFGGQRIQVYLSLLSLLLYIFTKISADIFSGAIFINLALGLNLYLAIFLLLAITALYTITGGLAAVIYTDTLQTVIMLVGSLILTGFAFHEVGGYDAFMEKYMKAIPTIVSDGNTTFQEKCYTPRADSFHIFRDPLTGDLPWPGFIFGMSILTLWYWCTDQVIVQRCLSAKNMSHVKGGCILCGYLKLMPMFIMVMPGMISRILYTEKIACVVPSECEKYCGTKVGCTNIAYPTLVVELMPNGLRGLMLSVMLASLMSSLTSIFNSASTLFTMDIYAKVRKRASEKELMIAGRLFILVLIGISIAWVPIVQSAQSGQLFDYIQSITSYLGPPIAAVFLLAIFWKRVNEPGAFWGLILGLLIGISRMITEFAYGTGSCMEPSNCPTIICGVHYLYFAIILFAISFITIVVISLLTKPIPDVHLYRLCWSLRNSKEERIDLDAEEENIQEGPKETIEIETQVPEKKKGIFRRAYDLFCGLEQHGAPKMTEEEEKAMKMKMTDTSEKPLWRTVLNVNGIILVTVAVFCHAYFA
Outline: as §1

[1] = @ 0.3 μM, CHO-K1 cells stably expressing human SGLT2, 14C-AMG uptake
[2] = CHO-K1 cells stably expressing human SGLT2, 14C-AMG uptake, compounds of formula (I) where R0 is fluoro
[3] = @ 0.3 μM, CHO-K1 cells stably expressing human SGLT1, 14C-AMG uptake
[4] = CHO-K1 cells stably expressing human SGLT1, 14C-AMG uptake, compounds of formula (I) where R0 is fluoro
[5] = 0.3 μM, CHO-K1 cells expressing human SGLT1

| inhibition at 0.3 µM (human SGLT2; [1]) [%] | pIC50 (human SGLT2; [2]) | inhibition at 0.3 µM (human SGLT1; [3]) [%] | pIC50 (human SGLT1; [4]) | SGLT2 % Inh @ 0.3 μM (human SGLT2; [1]) [%] | SGLT1 % Inh @ 0.3 μM (human SGLT1; [3]) [%] | SMILES | also measured |
| --- | --- | --- | --- | --- | --- | --- | --- |
| 83.6 | 8.89 | 60.2 | 7.40 |  |  | CCc1csc(Cc2cc([C@@H]3O[C@H](CO)C(F)(F)[C@H](O)[C@H]3O)c(O)cc2C)c1 [Compound 182] |  |
| 87.8 | 8.51 | 79.6 | 7.89 |  |  | Cc1ccc(Cc2cc([C@@H]3O[C@H](CO)C(F)(F)[C@H](O)[C@H]3O)c(O)cc2C)cc1F [Compound 177] |  |
|  |  |  |  | 83.3 | 17.3 | N#Cc1cc(O)c([C@@H]2O[C@H](CO)C(F)(F)[C@H](O)[C@H]2O)cc1Cc1ccc(C2CC2)cc1 [Compound 173] |  |
|  |  |  |  | 74.9 | 8.5 | CCc1ccc(Cc2cc([C@@H]3O[C@H](CO)C(F)(F)[C@H](O)[C@H]3O)c(OC)cc2C#N)cc1 [Compound 166] |  |
|  |  |  |  | 87.4 | 39.3 | COc1c([C@@H]2O[C@H](CO)C(F)(F)[C@H](O)[C@H]2O)cc(Cc2ccc(C3CC3)cc2)c2c1CCO2 [Compound 183] |  |
| 85.7 | 6.97 | 49.9 | 6.11 |  |  | [2H]C([2H])(c1ccc2c(c1)OCCO2)c1cc([C@@H]2O[C@H](CO)C(F)(F)[C@H](O)[C@H]2O)ccc1CC [Compound 192] |  |
|  |  |  |  | 62.1 | 24.9 | CN(C)c1ccc(Cc2cc([C@@H]3O[C@H](CO)C(F)(F)[C@H](O)[C@H]3O)cc3c2OCC3)cc1 [Compound 179] |  |
|  |  |  |  | 60.1 | 21.6 | OC[C@H]1O[C@@H](c2cc(Cc3ccc4c(c3)OCCO4)c(Cl)c3c2CCO3)[C@H](O)[C@@H](O)C1(F)F [Compound 188] |  |
|  |  |  |  | 79.9 | 40.4 | COc1cc(Cl)c(Cc2ccc(Cl)s2)cc1[C@@H]1O[C@H](CO)C(F)(F)[C@H](O)[C@H]1O [Compound 172] |  |

Second part, the compound before the results:

| SMILES | inhibition at 0.3 µM (human SGLT2; [1]) [%] | pIC50 (human SGLT2; [2]) | inhibition at 0.3 µM (human SGLT1; [3]) [%] | pIC50 (human SGLT1; [4]) | SGLT2 % Inh @ 0.3 μM (human SGLT2; [1]) [%] | SGLT1 % Inh @ 0.3 μM (human SGLT1; [3]) [%] | also measured |
| --- | --- | --- | --- | --- | --- | --- | --- |
| Cc1cc(O)c([C@@H]2O[C@H](CO)C(F)(F)[C@H](O)[C@H]2O)cc1Cc1ccc(OCF)cc1 [Compound 133] | 90.6 | 8.89 | 67.7 | 6.82 |  |  |  |
| CN(C)c1ccc(Cc2cc([C@@H]3O[C@H](CO)C(F)(F)[C@H](O)[C@H]3O)c(O)cc2C#N)cc1 [Compound 152] |  |  |  |  | 84.5 | 32.7 |  |
| CCc1ccc(Cc2cc([C@@H]3O[C@H](CO)C(F)(F)[C@H](O)[C@H]3O)c(OC)c3c2OCC3)cc1 [Compound 38] |  |  |  |  | 65.9 | 47.4 |  |
| COc1cc(C)c(Cc2ccc(C3CC3)cc2)cc1[C@@H]1O[C@H](CO)C(F)(F)[C@H](O)[C@H]1O [Compound 123] |  |  |  |  | 89.3 | 30.6 |  |
| COC(=O)N1CCc2sc(Cc3cc([C@@H]4O[C@H](CO)C(F)(F)[C@H](O)[C@H]4O)c(OC)cc3OC)cc2C1 [Compound 75] |  |  |  |  | 52.3 | 15.5 |  |
| COc1cc(OC)c(C2OC(CO)C(C)(F)C(O)C2O)cc1Cc1ccc2c(c1)CCCO2 (stereo not shown) [Compound 4] |  |  |  |  |  |  | SGLT2 % Inh @ 0.3 μM (human SGLT2; 0.3 μM, CHO-K1 cells expressing human SGLT2): 73.4%; SGLT1 % Inh @ 0.3 μM (human SGLT1; [5]): 0.9% |
| Cc1cc(O)c([C@@H]2O[C@H](CO)C(F)(F)[C@H](O)[C@H]2O)cc1Cc1cc2cc(F)ccc2s1 [Compound 52] | 81.2 | 7.72 | 41.3 | 6.64 |  |  |  |
| Cc1cc(O)c([C@@H]2O[C@H](CO)C(F)(F)[C@H](O)[C@H]2O)cc1Cc1ccc(-c2cccc(F)n2)s1 [Compound 70] | 76.2 | 8.57 | 61.2 | 6.92 |  |  |  |
| COc1cc(OC)c([C@@H]2O[C@H](CO)C(F)(F)[C@H](O)[C@H]2O)cc1Cc1ccc(OCF)cc1 [Compound 147] |  |  |  |  | 64.7 | 26.5 |  |
| Cc1cc(O)c([C@@H]2O[C@H](CO)C(F)(F)[C@H](O)[C@H]2O)cc1Cc1ccc2c(c1)OCCO2 [Compound 56, (2S,3R,4R,6R)-2-(5-((2,3-dihydrobenzo[b][1,4]dioxin-6-yl)methyl)-2-hydroxy-4-methylphenyl)-5,5-difluoro-6-(hydroxymethyl)tetrahydro-2H-pyran-3,4-diol] | 93 | 8.70 | 78.3 | 7.19 |  |  |  |
| COc1ccc(Cc2cc([C@@H]3O[C@H](CO)C(F)(F)[C@H](O)[C@H]3O)c(O)cc2C)cc1 [Compound 108, (2S,3R,4R,6R)-5,5-difluoro-2-[2-hydroxy-5-[(4-methoxyphenyl)methyl]-4-methyl-phenyl]-6-(hydroxymethyl)tetrahydropyran-3,4-diol] | 94.4 | 8.80 | 66.6 | 7.15 |  |  |  |
| OC[C@H]1O[C@@H](c2cc(Cc3ccc(Cl)cc3)c(Cl)cc2O)[C@H](O)[C@@H](O)C1(F)F [Compound 163, (2S,3R,4R,6R)-2-(4-chloro-5-(4-chlorobenzyl)-2-hydroxyphenyl)-5,5-difluoro-6-(hydroxymethyl)-tetrahydro-2H-pyran-3,4-diol] | 64.4 | 8.92 | 73.1 | 7.60 |  |  |  |
| COc1cc(Cl)c(Cc2cc3c(s2)CCN(C(C)=O)C3)cc1[C@@H]1O[C@H](CO)C(F)(F)[C@H](O)[C@H]1O [Compound 73] |  |  |  |  | 55.0 | 21.4 |  |
| CCOc1ccc(Cc2cc([C@@H]3O[C@H](CO)C(F)(F)[C@H](O)[C@H]3O)c(O)cc2C)cc1 [Compound 47, (2S,3R,4R,6R)-2-(5-(4-ethoxybenzyl)-2-hydroxy-4-methylphenyl)-5,5-difluoro-6-(hydroxymethyl)tetrahydro-2H-pyran-3,4-diol] | 61.2 | 8.74 | 47.9 | 6.60 |  |  |  |
| Cc1cc(O)c([C@@H]2O[C@H](CO)[C@@](C)(F)[C@H](O)[C@H]2O)cc1Cc1cc2ccccc2s1 [Compound 1] |  |  |  |  |  |  | pIC50 (human SGLT2; CHO-K1 cells expressing human SGLT2, 14C-AMG uptake): 7.71; inhibition at 0.3 µM (human SGLT1; [5]): 57.6%; pIC50 (human SGLT1; CHO-K1 cells expressing human SGLT1, 14C-AMG uptake): 6.70 |
| OC[C@H]1O[C@@H](c2cc(Cc3ccc(OCF)cc3)c(Cl)cc2O)[C@H](O)[C@@H](O)C1(F)F [Compound 116, (2S,3R,4R,6R)-2-(4-chloro-5-{[4-(fluoromethoxy)phenyl]methyl}-2-hydroxyphenyl)-5,5-difluoro-6-(hydroxymethyl)oxane-3,4-diol] | 85.5 | 8.35 | 65.2 | 6.91 |  |  |  |
| OC[C@H]1O[C@@H](c2cc(Cc3ccc4c(c3)CCCO4)c(Cl)c3c2OCC3)[C@H](O)[C@@H](O)C1(F)F [Compound 126] |  |  |  |  | 87.1 | 28.7 |  |
| OC[C@H]1O[C@@H](c2cc3c(c(Cc4ccc(OCF)cc4)c2)OCC3)[C@H](O)[C@@H](O)C1(F)F [Compound 146] |  |  |  |  | 76.8 | 41.9 |  |
| CCc1ccc(Cc2cc([C@@H]3O[C@H](CO)C(F)(F)[C@H](O)[C@H]3O)c(O)cc2C2CC2)cc1 [Compound 137] |  |  |  |  | 52.5 | 50.4 |  |
